# Source: patent US20090069320A1, “Substituted 4-Amino-Quinazoline Compounds with Metabotropic Glutamate Receptor Regulating Activity and Uses Thereof” (Gruenenthal GmbH, priority 2006, published 2009)
# pIC50: −log10 of the molar value.
# Target: T1, mGluR5 receptor (Sus scrofa, UniProt I3LUI7)
# T1 construct: 450 μg of protein from brain homogenate with 5 nM ^3[H]-MPEP; from tissue; host or cells: pig brain halves without medulla, cerebellum and pons
# Assay: [3H]-MPEP mGluR5 receptor binding assay (pig brain homogenate)
# Conditions: 5 nM [3H]-MPEP, read-out: IC50 mGluR5 Receptor (pig) [^3H]-MPEP Bond
# Experimental: I. Method for Determining the Inhibition of the [^3H]-MPEP Bond in the mGluR5 Receptor Binding Assay
# Pig brain homogenate is produced by homogenizing (Polytron PT 3000, Kinematica AG, 10 000 rpm for 90 seconds) pig brain halves without medulla, cerebellum and pons in pH 8.0 buffer (20 mM Hepes, Sigma, order no. H3375+1 complete tablet, 100 ml, Roche Diagnostics, order no. 1836145) in the ratio of 1:20 (brain weight/volume) and differential centrifuging at 900×g and 40 000×g. In incubation batches of 250 μl in 96-well microtitre plates 450 μg of protein from brain homogenate with 5 nM ^3[H]-MPEP (Tocris, order no. R1212) (MPEP=[…]) and the compounds to be examined (10 μM in test) in buffer (as above) are respectively incubated at room temperature for 60 minutes.
# The batches are then filtered using a Brandel cell harvester (Brandel, Robotic 9600) on unifilter plates with fibreglass filter mats (Perkin Elmer, order no. 6005177) and then washed with buffer (as above) 3-times each with 250 μl per sample. The filter plates are then dried for 60 mins. at 55° C. Then, 30 μL of Ultima Gold™ scintillator (Packard BioScience, order no. 6013159) are added per well and after 3 hours the samples are measured on the β-counter (MicroBeta, Perkin Elmer). The non-specific binding is determined by adding 10 μM of MPEP (Tocris, order no. 1212).
# T1 sequence (I3LUI7 19-1212): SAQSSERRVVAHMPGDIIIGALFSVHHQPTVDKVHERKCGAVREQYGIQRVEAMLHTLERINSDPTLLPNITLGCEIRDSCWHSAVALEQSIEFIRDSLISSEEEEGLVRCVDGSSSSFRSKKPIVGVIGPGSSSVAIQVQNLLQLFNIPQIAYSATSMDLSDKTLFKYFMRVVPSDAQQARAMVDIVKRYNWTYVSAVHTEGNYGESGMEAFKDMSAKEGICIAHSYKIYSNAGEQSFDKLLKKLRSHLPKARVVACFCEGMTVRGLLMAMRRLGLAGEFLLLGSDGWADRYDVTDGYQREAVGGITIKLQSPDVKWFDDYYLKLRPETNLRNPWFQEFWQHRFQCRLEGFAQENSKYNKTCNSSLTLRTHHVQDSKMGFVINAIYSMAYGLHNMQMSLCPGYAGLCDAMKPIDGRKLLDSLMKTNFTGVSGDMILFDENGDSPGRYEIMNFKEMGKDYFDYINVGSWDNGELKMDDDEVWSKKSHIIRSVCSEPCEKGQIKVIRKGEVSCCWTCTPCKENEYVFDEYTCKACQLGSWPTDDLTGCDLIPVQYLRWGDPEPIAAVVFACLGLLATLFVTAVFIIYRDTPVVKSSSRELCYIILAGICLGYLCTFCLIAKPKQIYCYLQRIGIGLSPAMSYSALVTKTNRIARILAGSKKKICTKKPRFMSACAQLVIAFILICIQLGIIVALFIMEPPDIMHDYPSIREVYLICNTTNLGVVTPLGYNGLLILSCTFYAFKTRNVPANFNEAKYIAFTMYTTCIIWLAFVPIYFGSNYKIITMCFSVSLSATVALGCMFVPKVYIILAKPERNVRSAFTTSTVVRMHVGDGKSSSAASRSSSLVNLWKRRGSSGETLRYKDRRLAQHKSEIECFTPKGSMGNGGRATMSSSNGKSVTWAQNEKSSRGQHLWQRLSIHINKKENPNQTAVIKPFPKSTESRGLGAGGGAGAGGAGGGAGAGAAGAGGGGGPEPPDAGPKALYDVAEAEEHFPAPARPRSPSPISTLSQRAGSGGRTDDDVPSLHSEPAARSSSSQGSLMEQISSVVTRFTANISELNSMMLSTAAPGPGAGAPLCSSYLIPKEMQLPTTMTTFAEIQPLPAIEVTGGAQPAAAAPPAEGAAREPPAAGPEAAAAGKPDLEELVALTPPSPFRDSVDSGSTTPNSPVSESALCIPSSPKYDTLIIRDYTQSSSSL
row,Compound,pIC50
1,"CC(=O)N(Cc1cc(-c2ccc3ncnc(NC4CC4)c3c2)ccc1F)C(C)(C)C [Example 279, N-tert-butyl-N-(5-(4-(cyclopropylamino)quinazolin-6-yl)-2-fluorobenzyl)acetamide]",5.03
2,"O=C(c1ccccn1)N(Cc1cccc(-c2ccc3ncnc(NC4CC4)c3c2)c1)C1CC1 [Example 275, N-cyclopropyl-N-(3-(4-(cyclopropylamino)quinazolin-6-yl)benzyl) picolinamide]",5.86
3,"O=C(C1CCCCC1)N(Cc1cccc(-c2ccc3ncnc(NC4CC4)c3c2)c1)C1CC1 [Example 265, N-cyclopropyl-N-(3-(4-(cyclopropylamino)quinazolin-6-yl)benzyl)cyclohexane carboxamide]",5.72
4,"COCC(=O)N(Cc1cc(-c2ccc3ncnc(NC4CC4)c3c2)ccc1F)C1CC1 [Example 390, N-cyclopropyl-N-(5-(4-(cyclopropylamino)quinazolin-6-yl)-2-fluorobenzyl)-2-methoxyacetamide]",7.15

# Second part, the compound after the results:
row,pIC50,Compound
1,6.89,"O=C(c1ccccn1)N(Cc1cccc(-c2cc(F)c3ncnc(NC4CC4)c3c2)c1)C1CC1 [Example 708, N-cyclopropyl-N-(3-(4-(cyclopropylamino)-8-fluoroquinazolin-6-yl)benzyl)picolinamide]"
2,7.30,"CC(=O)N(Cc1cc(-c2ccc3ncnc(NC4CC4)c3c2)ccc1Cl)C1CC1 [Example 777, N-(2-chloro-5-(4-(cyclopropylamino)quinazolin-6-yl)benzyl)-N-cyclopropyl acetamide]"

# Same assay, conditions: 10 μM compound, 5 nM [3H]-MPEP
row,% Inhibition of mGluR5 Receptor (pig) [^3H]-MPEP Bond at 10 μM [%],Compound
1,87,"Cc1cc2ncnc(NC3CC3)c2cc1-c1cccc(CN(C2CC2)S(=O)(=O)c2ccccc2)c1 [Example 721, N-cyclopropyl-N-(3-(4-(cyclopropylamino)-7-methylquinazolin-6-yl)benzyl)benzole sulfonamide]"
2,42,"CC(C)(C)Nc1ncnc2ccc(-c3ccc(F)c(CN(C(=O)c4ccno4)C4CC4)c3)cc12 [Example 834, N-(5-(4-(tert-butylamino)quinazolin-6-yl)-2-fluorobenzyl)-N-cyclopropyl isoxazole-5-carboxamide]"

row,Compound,% Inhibition of mGluR5 Receptor (pig) [^3H]-MPEP Bond at 10 μM [%]
1,"CC(C)(C)Nc1ncnc2ccc(-c3ccc(F)c(CN(C(=O)CCc4ccccc4)C4CC4)c3)cc12 [Example 821, N-(5-(4-(tert-butylamino)quinazolin-6-yl)-2-fluorobenzyl)-N-cyclopropyl-3-phenyl propanamide]",84

# Same assay, conditions: 10 μM compound, 5 nM [3H]-MPEP, read-out: % Inhibition of mGluR5 Receptor (pig) [^3H]-MPEP Bond at 10 μM
row,Compound,inhibition at 10 µM [%]
1,"CCCN(Cc1cccc(-c2ccc3ncnc(Nc4ccccc4)c3c2)c1)C(=O)c1cc2ccccc2cn1 [Example 100, isoquinoline-3-carboxylic acid [3-(4-phenylamino-quinazolin-6-yl)-benzyl]-propyl-amide]",36
2,"Cc1cccc(CNc2ncnc3ccc(-c4cccc(CN(C5CC5)S(C)(=O)=O)c4)cc23)c1 [Example 380, N-cyclopropyl-N-(3-(4-(3-methylbenzylamino)quinazolin-6-yl)benzyl)methane sulfonamide]",46
3,"O=C(c1ccccn1)N(Cc1cccc(-c2ccc3ncnc(NC4CC4)c3c2)c1)C1CC1 [Example 170, pyridine-2-carboxylic acid cyclopropyl-[3-(4-cyclopropylamino-quinazolin-6-yl)-benzyl]-amide]",78
4,"Cc1nc(NC2CC2)c2cc(-c3ccc(F)c(CN(C(=O)c4c(F)c(F)c(F)c(F)c4F)C4CC4)c3)ccc2n1 [Example 574, N-cyclopropyl-N-(5-(4-(cyclopropylamino)-2-methylquinazolin-6-yl)-2-fluorobenzyl)-2,3,4,5,6-pentafluorobenzamide]",106
5,"CCCN(Cc1cccc(-c2ccc3ncnc(Nc4ccccc4)c3c2)c1)C(=O)c1ccco1 [Example 120, furan-2-carboxylic acid [3-(4-phenylamino-quinazolin-6-yl)-benzyl]-propyl-amide]",48
6,"COCC(=O)N(Cc1cccc(-c2ccc3ncnc(NCc4cccc(C)c4)c3c2)c1)C1CC1 [Example 434, N-cyclopropyl-2-methoxy-N-(3-(4-(3-methylbenzylamino)quinazolin-6-yl)benzyl)acetamide]",62
7,"Cc1cccc(CNc2ncnc3ccc(-c4cccc(CN(C(=O)c5cc(C)nn5C)C5CC5)c4)cc23)c1 [Example 402, N-cyclopropyl-1,3-dimethyl-N-(3-(4-(3-methylbenzylamino)quinazolin-6-yl)benzyl)-1H-pyrazole-5-carboxamide]",34
8,"COc1ccc(C(=O)N(Cc2cccc(-c3ccc4ncnc(NC5CC5)c4c3)c2)C2CC2)cc1 [Example 171, N-cyclopropyl-N-[3-(4-cyclopropylamino-quinazolin-6-yl)-benzyl]-4-methoxy-benzamide]",100
9,"COc1ccc(C(=O)N(Cc2cccc(-c3ccc4ncnc(NC5CC5)c4c3)c2)C2CC2)cc1OC [Example 158, N-cyclopropyl-N-[3-(4-cyclopropylamino-quinazolin-6-yl)-benzyl]-3,4-dimethoxy-benzamide]",81

# The next lines start with the values.
row,inhibition at 10 µM [%],Compound
1,87,"O=C(CCc1ccccc1)N(Cc1cccc(-c2cc(F)c3ncnc(NC4CC4)c3c2)c1)C1CC1 [Example 703, N-cyclopropyl-N-(3-(4-(cyclopropylamino)-8-fluoroquinazolin-6-yl)benzyl)-3-phenylpropanamide]"
2,41,"COc1ccc(CNc2ncnc3ccc(-c4cccc(CN(C(=O)CN(C)C)C5CC5)c4)cc23)c(OC)c1 [Example 689, N-cyclopropyl-N-(3-(4-(2,4-dimethoxybenzylamino)quinazolin-6-yl)benzyl)-2-(dimethylamino)acetamide]"
3,90,"CC(C)(C)C(=O)N(Cc1cc(-c2ccc3ncnc(NC4CC4)c3c2)ccc1F)C1CC1 [Example 645, N-cyclopropyl-N-(5-(4-(cyclopropylamino)quinazolin-6-yl)-2-fluorobenzyl)pivalamide]"
4,63,"CC(C)(C)Nc1ncnc2ccc(-c3ccc(F)c(CN(C(=O)c4ccc(C(F)(F)F)cc4F)C4CC4)c3)cc12 [Example 860, N-(5-(4-(tert-butylamino)quinazolin-6-yl)-2-fluorobenzyl)-N-cyclopropyl-2-fluoro-4-(trifluoromethyl)benzamide]"
5,67,"Cc1cc2ncnc(NC3CC3)c2cc1-c1cccc(CN(C(=O)c2cc(Cl)cc(Cl)c2)C2CC2)c1 [Example 692, 3,5-dichloro-N-cyclopropyl-N-(3-(4-(cyclopropylamino)-7-methylquinazolin-6-yl)benzyl)benzamide]"
6,71,"O=C(c1ccc(F)cc1F)N(Cc1cc(-c2ccc3ncnc(NC4CC4)c3c2)ccn1)C1CC1 [Example 817, N-cyclopropyl-N-((4-(4-(cyclopropylamino)quinazolin-6-yl)pyridin-2-yl)methyl)-2,4-difluorobenzamide]"
7,47,"CN(C)CC(=O)N(Cc1cc(-c2ccc3ncnc(NC4CC4)c3c2)ccn1)C1CC1 [Example 739, N-cyclopropyl-N-((4-(4-(cyclopropylamino)quinazolin-6-yl)pyridin-2-yl)methyl)-2-(dimethylamino)acetamide]"
8,86,"CC(C)(C)Nc1ncnc2ccc(-c3ccc(F)c(CN(C(=O)c4cccc(F)c4)C4CC4)c3)cc12 [Example 849, N-(5-(4-(tert-butylamino)quinazolin-6-yl)-2-fluorobenzyl)-N-cyclopropyl-3-fluorobenzamide]"
